In patent US7045502B2, “Use of melagatran for the manufacture of a medicament for the treatment of Type 1 diabetes mellitus” (AstraZeneca AB, priority 2002, dated 2006):
Entries after “also recorded” stand apart in the source; their conditions may differ.

What was measured:
human islets [1] = assay: Islet perfusion system (islet function, insulin secretion); type: cell-based; conditions: 10 μM melagatran
Excerpt: Pancreases were obtained from cadaver donors after consent was obtained either from the organ donor registry or from relatives. The organs were obtained from three female and two male normoglycemic donors (aged 59–85 years, three with blood group 0 and two with blood group A). The islets were isolated at the Division for Clinical Immunology at the University of Uppsala using a modification of previously described semiautomated digestion-filtration methods (Brandhorst et al, Cell Transplant., 7, 489 (1998) and Ricordi et al, Diabetes, 37, 413 (1988)). This isolation procedure was followed by further purification on a continuous density gradient in a refrigerated COBE 2991 centrifuge (COBE Blood Component Technology, Lakewood, Colo., USA). The islets were placed in untreated culture flasks and maintained in suspension culture at 37° C. (5% CO2) for. 1 to 5 days. The culture medium (CMRL 1066; ICN Biomedicals, Costa Mesa, Calif.) was changed every other day. The volume and purity of the islets were determined by microscopic sizing on a grid after staining with diphenylthiocarbazone. […] Viability was assessed in terms of insulin secretion in response to a glucose challenge in a dynamic perfusion system (in 1.67 mmol/L glucose, then in 16.7 mmol/L, and finally back to 1.67 mmol/L). […]

[2] = tested on: human islets in ABO-compatible blood (IBMIR); assay: Tubing loop model: human islets perfused with fresh ABO-compatible human blood (IBMIR); type: cell-based
Excerpt: Pancreases were obtained from cadaver donors after consent was obtained either from the organ donor registry or from relatives. The organs were obtained from three female and two male normoglycemic donors (aged 59–85 years, three with blood group 0 and two with blood group A). The islets were isolated at the Division for Clinical Immunology at the University of Uppsala using a modification of previously described semiautomated digestion-filtration methods (Brandhorst et al, Cell Transplant., 7, 489 (1998) and Ricordi et al, Diabetes, 37, 413 (1988)). This isolation procedure was followed by further purification on a continuous density gradient in a refrigerated COBE 2991 centrifuge (COBE Blood Component Technology, Lakewood, Colo., USA). The islets were placed in untreated culture flasks and maintained in suspension culture at 37° C. (5% CO2) for. 1 to 5 days. The culture medium (CMRL 1066; ICN Biomedicals, Costa Mesa, Calif.) was changed every other day. The volume and purity of the islets were determined by microscopic sizing on a grid after staining with diphenylthiocarbazone. The purity of the islet preparations used in this study ranged from 40% and 95% (70±6.3%) (amount of endocrine compared to exocrine/duct tissue in the preparation; mean ±SD). Viability was assessed in terms of insulin secretion in response to a glucose challenge in a dynamic perfusion system (in 1.67 mmol/L glucose, then in 16.7 mmol/L, and finally back to 1.67 mmol/L).
All materials that came in contact with whole blood were furnished with a Corline heparin surface (Corline, Uppsala, Sweden) according to the manufacturer's recommendation (see J. Clin. Immunol., 16, 222 (1996)). The surface concentration of heparin was 0.5 μg/cm^2, corresponding to approximately 0.1 U/cm^2, with an antithrombin binding capacity of 2–4 pmol/cm^2.
Fresh human blood, obtained from healthy volunteers who had received no medication for at least 14 days, was collected in surface-heparinized 60-mL syringes (18 gauge, Microlance; Becton Dickinson, Franklin Lakes, N.J.). The cannulae of the syringes were connected to surface-heparinized-silicon tubing. During sampling, the syringes were rotated continuously.
(§1) A modification of the model previously described was used (see Bennet et al, Diabetes, 48, 1907 (1999), Gong et al, J. Clin. Immunol., 16, 222 (1996) and Larsson et al, Immunophamnacology, 38, 119 (1997)). This device consisted of loops made of PVC (diameter, 6.3 mm; length, 390 mm) whose inner surface was furnished with immobilized heparin. The tubing was held together with a specially designed heparinized connector. A circular loop was formed when the ends of the connector were tightly pushed into the lumen of the tubing ends. A rocking apparatus, placed in a 37° C. incubator, was used to generate blood flow inside the loops. The loops were rocked at a setting that prevented the blood from coming into contact with the connectors. Up to twelve devices could be rocked at the same time. Ten 60-min islet experiments were performed, with islets isolated from five different donors. Melagatran (Astraeneca R&D Mölndal, Sweden), dissolved in 5 mM citrate buffer containing 0.15 M NaCl, pH 5.5, was tested at 0, 0.4 μM, 1 μM, 4 μM, and 10 μM. For each experiment, two loops of fresh human blood without islets, one containing CMRL 1066 (GibcoRBL, USA) and one containing 10 μM melagatran, were included as controls. Fresh ABO-compatible human blood from the same donor (5 mL) was added to each loop. The loops were placed on the rocking device for a 10-min preincubation with melagatran or citrate buffer. Thereafter, the loops were opened, and 150 μL of CMRL 1066, with or without 4 μL of islets (approximately 4,000 IEQ), was added to the loops, followed by another 60-min incubation on the rocking device at 37° C. Blood glucose levels were measured with a glucometer (Glucometer Elite; Bayer Diagnostics, Leverkusen, Germany) before the perfusion. […]

complement system = assay: Activation of complement in serum in wells of microtiter plates; type: biochemical; conditions: human serum, no islets, 0 to 10 μM, 30 min, 37° C.
Description: The direct effect of melagatran on the complement system was studied using a method in which serum was incubated in the wells of microtiter plates (Nilsson et al, Mol. Immunol., 30, 211 (1993)). Serum (100 μL) was added to each well of a 96-well microtiter plate together with melagatran at a final concentration of 0, 0.4, 1, 4, or 10 μM. After a 30-min incubation at 37° C., the serum was transferred to tubes containing EDTA (final concentration, 10 mM). These samples were stored at −70° C. before analysis of the complement fragment C3a (see below). In order to detect bound C3 fragments, the wells of the microtiter plates were washed with PBS containing 0.05% (v/v) TWEEN 20 and incubated with 100 μL of horseradish peroxidase (HRP)-conjugated anti-C3c (DAKO. AS, Glostrup, Denmark) for 60 min at 37° C. The binding of antibody was detected by the addition of 1,2-phenylendiamine dihydrochloride (Fluka, Switzerland), and the staining was monitored at 492 nm.
EDTA-plasma was analyzed as previously described (Nilsson Ekdahl et al, Scand. J. Immunol., 35, 85 (1992)). Monoclonal antibody 4SD17.3 was used as capture antibody. Bound C3a was detected with biotinylated polyclonal anti-C3a followed by HRP-conjugated streptavidin (Amersham, Buckinghamshire, UK). Zymosan-activated serum, calibrated against a solution of purified C3a, served as a standard, and the values are given as ng/mL.

human islets [3] = assay: Immunohistochemical staining of human islets after perfusion in the tubing loop model; type: cell-based; conditions: 10 μM melagatran
Excerpt: as §1, with “perfusion. After every perfusion the loop contents were filtered through 70 μm-diameter filters (Filcons, Cuptype; DAKO, Denmark). Both macroscopic blood clots and tissue recovered on the filters were frozen in liquid nitrogen for immunohistochemical staining. For immunohistochemical comparison, non-perfused islets were also frozen and stained by the same procedure.” for “perfusion.”

[4] = islets, 10 μM melagatran, 60 min perifusion with ABO-compatible blood, mean ± SEM, n=10
[5] = islets, 10 μM melagatran, 60 min perifusion with ABO-compatible blood, plasma, mean ± SEM, n=10

N=C(N)c1ccc(CNC(=O)[C@@H]2CCN2C(=O)[C@H](NCC(=O)O)C2CCCCC2)cc1 [melagatran, HOOC—CH2—(R)Cgl-Aze-Pab-H]
Insulin release on perfusion of islets (human islets [1]): did not induce insulin release | Subsequent glucose stimulation of islets (human islets [1]; glucose 16.7 mmol/L): normal | FXIa-AT versus medium control ([2]; 4 μM melagatran, FIG. 1B): decreased to nearly the same level as the medium control | TAT versus medium control ([2]; 4 μM melagatran, FIG. 1B): decreased to nearly the same level as the medium control | Cell consumption and cascade system activation ([2]; 0.4 to 10 μM, 60 min): diminished cell consumption and cascade system activation in a dose-dependent manner | Release of β-TG ([2]; at ≧4 μM, FIG. 1A): normalized | Inhibition of prothrombin fragment 1+2 formation ([2]; compared with 4 μM needed for TAT and FXIa-AT, FIG. 1B): required higher doses | Inhibition of IBMIR (overall) ([2]; in vitro): almost completely inhibits IBMIR; also recorded: abrogated IBMIR | Granulocytes [2, 4]: 3.7 ± 0.3 ×10^9/L | Lymphocytes [2, 4]: 2.0 ± 0.1 ×10^9/L | Monocytes [2, 4]: 0.6 ± 0.1 ×10^9/L | Platelets [2, 4]: 170 ± 8.2 ×10^9/L | C3a [2, 5]: 510 ± 50 ng/mL | FXIa-AT [2, 5]: 0.9 ± 0.6 µmol/L | Insulin [2, 5]: 1500 ± 350 mU/L | Prothrombin F1 + 2 [2, 5]: 110 ± 28 nmol/L | TAT [2, 5]: 890 ± 160 µg/L | sC5b-9 [2, 5]: 140 ± 17.0 AU/mL | β-TG [2, 5]: 1300 ± 200 IU/mL | Complement activation product C3a ([2]; tubing loop with islets, 0 to 10 μM, FIG. 2): inhibited | Concentration at which an effect on most parameters was already observed ([2]; tubing loop, 60 min): 0.4 µM | Concentration at which cell counts were fully restored ([2]; tubing loop, 60 min, FIGS. 1A, 1C): ≥ 4 µM | Binding of C3 fragments to the polystyrene surface (complement system): no effect | Generation of C3a (complement system): no effect | Clot formation around islets (human islets [3]; 60 min perfusion with fresh human blood): no signs of clot formation | CD11b+ cells penetrated into the islets (human islets [3]; 60 min perfusion, anti-CD11b staining): only a few | CD41+ platelets surrounding the islet surface (human islets [3]; 60 min perfusion, anti-CD41a staining): almost no
